Laboratory results published in ChEMBL document CHEMBL1201862, “PubChem BioAssay data set” (2004).
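Step 1: Grow cells in 96-well plates. Step 2: Expose to compound for 48 hours at 5 concentrations. Step 3: Interpolate endpoints linearly; if unreached, use highest concentration. Abbreviation: GI50, concentration required for 50% inhibition of growth.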 Active and inactive are the calls of the source. Cut-off read from the data, not from the text of the source: active = GI50 up to about 1.1 µM and inactive = higher.

Experiments:
Assay in all cases: NCI anticancer screen, dose series, 48 h
[1] = system: MDA-MB-231
[2] = system: SK-MEL-2
[3] = system: SW-620
[4] = system: CAKI-1
[5] = system: BT-549
[6] = system: SK-MEL-5
[7] = system: T47D
[8] = system: HCT-116
[9] = system: UACC-62
[10] = system: UACC-257
[11] = system: IGROV-1
[12] = system: SF-295
[13] = system: TK-10
[14] = system: SF-539
[15] = system: SK-MEL-28
[16] = system: MOLT-4
[17] = system: HL-60
[18] = system: SR
[19] = system: K562
[20] = system: HCC 2998

SMILES	GI50 [1]	GI50 [2]	GI50 [3]	GI50 [4]	GI50 [5]	GI50 [6]	GI50 [7]	GI50 [8]	GI50 [9]	GI50 [10]	GI50 [11]	GI50 [12]	GI50 [13]	GI50 [14]	GI50 [15]	GI50 [16]	GI50 [17]	GI50 [18]	GI50 [19]	GI50 [20]
CCOC(=O)C1(C/C=C\CBr)CCCC1=O (stereo not given)	25.6 µM (inactive)	31.3 µM (inactive)	22.4 µM (inactive)	48.8 µM (inactive)	30.3 µM (inactive)	26.7 µM (inactive)	30.5 µM (inactive)	19.5 µM (inactive)	15.7 µM (inactive)	39 µM (inactive)	24.9 µM (inactive)	60 µM (inactive)	13.2 µM (inactive)	24.6 µM (inactive)	47.3 µM (inactive)					
Clc1ccc(C2Nc3ccccc3C3=NCCN32)cc1 (stereo not given)	23.5 µM (inactive)	19.1 µM (inactive)	24.5 µM (inactive)	26.5 µM (inactive)	24.3 µM (inactive)	15.7 µM (inactive)	15.6 µM (inactive)	12.4 µM (inactive)	16.9 µM (inactive)	17.5 µM (inactive)	14.2 µM (inactive)	14.8 µM (inactive)	16.8 µM (inactive)	15.6 µM (inactive)	18 µM (inactive)	36.4 µM (inactive)	22.1 µM (inactive)	21 µM (inactive)	15.7 µM (inactive)	
CCCCI(O)OS(=O)(=O)c1ccc(C)cc1	> 100 µM (inactive)	> 100 µM (inactive)	> 100 µM (inactive)	> 100 µM (inactive)	> 100 µM (inactive)	> 100 µM (inactive)	> 100 µM (inactive)	> 100 µM (inactive)	89.1 µM (inactive)	> 100 µM (inactive)	28.2 µM (inactive)	> 100 µM (inactive)	> 100 µM (inactive)	> 100 µM (inactive)	> 100 µM (inactive)	> 100 µM (inactive)		55.3 µM (inactive)	67.8 µM (inactive)	> 100 µM (inactive)
COc1cccc2c1OC(c1cccc3ccccc13)C([N+](=O)[O-])=C2 (stereo not given)	2.12 µM (inactive)			2.33 µM (inactive)	1.17 µM (inactive)	1.59 µM (inactive)	2.22 µM (inactive)	1.21 µM (inactive)	1.08 µM (active)	1.54 µM (inactive)	2.49 µM (inactive)	1.88 µM (inactive)	2.32 µM (inactive)		1.53 µM (inactive)	0.552 µM (active)	0.612 µM (active)	0.604 µM (active)	0.685 µM (active)	
CC(NC(=O)/C(C#N)=C/c1ccc2[nH]ccc2c1)c1ccccc1 (stereo not given)		20.8 µM (inactive)	18.3 µM (inactive)	29.3 µM (inactive)	11.2 µM (inactive)	18.2 µM (inactive)	20.3 µM (inactive)	14.9 µM (inactive)	15.3 µM (inactive)	21.3 µM (inactive)	17.2 µM (inactive)	17.1 µM (inactive)	17.9 µM (inactive)	19.8 µM (inactive)	19.8 µM (inactive)	20.8 µM (inactive)	18.7 µM (inactive)	24.2 µM (inactive)	23.8 µM (inactive)	19.8 µM (inactive)
CCNC(=S)NNC(=O)c1csc(NC(=S)NC2CCCCC2)n1	6.53 µM (inactive)	12.3 µM (inactive)	5.27 µM (inactive)	6.71 µM (inactive)	15.2 µM (inactive)	2.79 µM (inactive)	11.7 µM (inactive)	5.26 µM (inactive)	6.18 µM (inactive)	4.79 µM (inactive)		10.2 µM (inactive)	19.1 µM (inactive)	6.17 µM (inactive)		3.11 µM (inactive)		3.5 µM (inactive)		8.17 µM (inactive)
N#Cc1c(-c2ccccc2)c(C#N)c(=S)n(C2OC(CO)C(O)C(O)C2O)c1O (stereo not given)	> 100 µM (inactive)	> 100 µM (inactive)	> 100 µM (inactive)	> 100 µM (inactive)	> 100 µM (inactive)	> 100 µM (inactive)	> 100 µM (inactive)		> 100 µM (inactive)	> 100 µM (inactive)	> 100 µM (inactive)	> 100 µM (inactive)	> 100 µM (inactive)	> 100 µM (inactive)	> 100 µM (inactive)	> 100 µM (inactive)	> 100 µM (inactive)	> 100 µM (inactive)	> 100 µM (inactive)	
CCOC(=O)CNC(=O)C(CSCC1C(=O)Nc2ccccc21)NC(=O)CCC(N)C(=O)OCC (stereo not given)	1.58 µM (inactive)	1.87 µM (inactive)	1.19 µM (inactive)	0.745 µM (active)	2.44 µM (inactive)	1.6 µM (inactive)	5.65 µM (inactive)	0.551 µM (active)	1.57 µM (inactive)	4.16 µM (inactive)	1.15 µM (inactive)	2.77 µM (inactive)	1.62 µM (inactive)	0.247 µM (active)	1.68 µM (inactive)		2.36 µM (inactive)	0.24 µM (active)	0.242 µM (active)	
